According to patent US11566007B2, “Ras inhibitors” (Revolution Medicines, Inc., priority 2019, dated 2023):
Where two headings read alike, the source gives them in different places.

Assays:
KRAS G13D = KRAS G13D (Homo sapiens (Human), UniProt P01116+P62937, G13D); assay: Ras-Raf (BRAF RBD) disruption / FRET / MOA assay, KRAS G13D; type: biochemical
In short: (§1)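 Ternary complex formation (Ras–compound–cyclophilin A) displacing BRAF RBD, monitored by TR-FRET. Three hours at 25° C with compound (top 30 μM final), then 1.5 h with the labelled antibodies. Lower ratio than DMSO indicates disruption; IC50 reported.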

KRAS G12S = KRAS G12S (Homo sapiens (Human), UniProt P01116+P62937, G12S); assay: Ras-Raf (BRAF RBD) disruption / FRET / MOA assay, KRAS G12S; type: biochemical; conditions: Ras-Raf disruption/FRET/MOA assay; class symbols; read-out: KRAS G12S FRET data IC50
Chain of KRAS G12S (P01116-2 other isoform, or with tags, fused parts or gaps G12S): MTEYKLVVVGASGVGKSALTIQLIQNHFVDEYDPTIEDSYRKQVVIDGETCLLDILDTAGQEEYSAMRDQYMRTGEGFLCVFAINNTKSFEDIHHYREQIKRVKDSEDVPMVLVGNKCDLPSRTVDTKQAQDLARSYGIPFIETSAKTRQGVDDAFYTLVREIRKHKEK
Chain of KRAS G12S (P62937 whole entry): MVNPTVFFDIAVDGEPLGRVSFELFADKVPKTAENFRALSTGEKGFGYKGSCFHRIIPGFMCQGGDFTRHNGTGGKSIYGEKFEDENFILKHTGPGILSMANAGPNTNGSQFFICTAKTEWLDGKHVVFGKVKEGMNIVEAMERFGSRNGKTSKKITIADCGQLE
In short: as §1

KRAS WT = KRAS WT (Homo sapiens (Human), UniProt P01116+P62937); assay: Ras-Raf (BRAF RBD) disruption / FRET / MOA assay, KRAS WT; type: biochemical; conditions: read-out: IC50* KRAS WT FRET data
Chain of KRAS WT (P01116-2 other isoform, or with tags, fused parts or gaps): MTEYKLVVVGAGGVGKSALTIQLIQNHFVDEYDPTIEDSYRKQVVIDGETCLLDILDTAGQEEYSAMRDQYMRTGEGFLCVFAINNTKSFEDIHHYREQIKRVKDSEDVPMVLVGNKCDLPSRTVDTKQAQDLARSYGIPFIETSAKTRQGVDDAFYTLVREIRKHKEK
Chain of KRAS WT (P62937 whole entry): as the sequence (P62937 whole entry) above
In short: as §1

K-Ras G12C = K-Ras G12C (Homo sapiens (Human), UniProt P01116+P62937, G12C); assay: Ras-Raf (BRAF RBD) disruption / FRET / MOA assay, KRAS G12C; type: biochemical
Chain of K-Ras G12C (P01116-2 other isoform, or with tags, fused parts or gaps G12C): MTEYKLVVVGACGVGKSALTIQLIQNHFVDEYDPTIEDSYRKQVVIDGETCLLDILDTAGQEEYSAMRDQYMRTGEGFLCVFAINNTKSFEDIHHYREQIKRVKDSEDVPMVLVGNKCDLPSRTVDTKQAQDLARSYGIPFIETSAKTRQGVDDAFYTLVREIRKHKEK
Chain of K-Ras G12C (P62937 whole entry): as the sequence (P62937 whole entry) above
In short: as §1

NRAS Q61K = NRAS Q61K (Homo sapiens (Human), UniProt P01111+P62937, Q61K); assay: Ras-Raf (BRAF RBD) disruption / FRET / MOA assay, NRAS Q61K; type: biochemical; conditions: NRAS Q61K; Ras-Raf disruption/FRET/MOA assay; read-out: IC50* NRAS Q61K FRET data
Chain of NRAS Q61K (P01111 whole entry Q61K): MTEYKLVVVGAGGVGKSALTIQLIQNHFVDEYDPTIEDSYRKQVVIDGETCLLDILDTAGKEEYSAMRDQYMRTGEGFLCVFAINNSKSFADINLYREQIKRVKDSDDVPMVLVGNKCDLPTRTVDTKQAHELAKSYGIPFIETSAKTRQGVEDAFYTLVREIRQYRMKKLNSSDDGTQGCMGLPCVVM
Chain of NRAS Q61K (P62937 whole entry): as the sequence (P62937 whole entry) above
In short: (§2)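 Compounds were tested as a 10-point 3-fold dilution series from 30 μM final for their ability to drive ternary complex formation between nucleotide-loaded Ras and cyclophilin A, displacing the BRAF RBD. After 3 h at 25° C., anti-His Eu-W1024 (10 nM) and anti-GST allophycocyanin (50 nM) were added for 1.5 h. A TR-FRET ratio decrease versus DMSO gave IC50.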

[1] = tested on: NCI-H358 cells (K-Ras G12C); assay: Potency assay: pERK in NCI-H358 cells; type: cell-based, human; conditions: Homo sapiens
In short: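 Compounds are dosed as ten 3-fold dilutions from a 10 mM DMSO stock, in duplicate, and left on cells for 4 h at 37 °C, 5% CO2. Phospho-ERK1/2 is then quantified by AlphaLISA SureFire Ultra or In-Cell Western, and IC50 is derived from a 4-parameter sigmoid against log concentration.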

KRAS Q61H = KRAS Q61H (Homo sapiens (Human), UniProt P01116+P62937, Q61H); assay: Ras-Raf (BRAF RBD) disruption / FRET / MOA assay, KRAS Q61H; type: biochemical; conditions: Ras-Raf disruption/FRET/MOA assay; class symbols; read-out: KRAS Q61H FRET data IC50
Chain of KRAS Q61H (P01116-2 other isoform, or with tags, fused parts or gaps Q61H): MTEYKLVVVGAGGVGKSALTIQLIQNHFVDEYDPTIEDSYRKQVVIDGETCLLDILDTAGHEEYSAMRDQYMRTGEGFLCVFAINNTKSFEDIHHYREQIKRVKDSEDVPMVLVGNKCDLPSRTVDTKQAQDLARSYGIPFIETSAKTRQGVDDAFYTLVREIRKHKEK
Chain of KRAS Q61H (P62937 whole entry): as the sequence (P62937 whole entry) above
In short: as §2

[2] = read-out: IC50* KRAS G13D FRET data
[3] = KRAS G12C, Ras-Raf disruption/FRET/MOA assay, read-out: IC50* KRAS G12C FRET data
[4] = NCI-H358, H358 KRAS G12C, read-out: pERK EC50

Chain of KRAS G13D (P01116-2 other isoform, or with tags, fused parts or gaps G13D): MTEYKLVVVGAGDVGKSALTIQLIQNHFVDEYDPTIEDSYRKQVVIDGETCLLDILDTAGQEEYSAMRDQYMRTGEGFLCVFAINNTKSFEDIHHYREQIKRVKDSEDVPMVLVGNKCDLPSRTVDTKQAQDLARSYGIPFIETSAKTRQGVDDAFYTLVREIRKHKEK
Chain of KRAS G13D (P62937 whole entry): as the sequence (P62937 whole entry) above

| SMILES | IC50 (KRAS G13D; [2]) | IC50 (KRAS G12S) | IC50 (KRAS WT) | IC50 (K-Ras G12C; [3]) | IC50 (NRAS Q61K) | EC50 [1, 4] | IC50 (KRAS Q61H) | IC50 (K-Ras G12C; with Cyclophilin A, BRAF RBD, read-out: FRET (K-Ras G12C) IC50) | EC50 ([1]; NCI-H358, read-out: pERK EC50) | IC50 (KRAS G13D; IC50* KRAS G13D FRET data) | IC50 (K-Ras G12C; IC50* KRAS G12C FRET data, KRAS G12C, Ras-Raf disruption/FRET/MOA assay) |
| --- | --- | --- | --- | --- | --- | --- | --- | --- | --- | --- | --- |
| C=CC(=O)N1CC[C@H](C(=O)N(C)[C@H](C(=O)N[C@H]2Cc3cc(ccn3)-c3ccc4c(c3)c(c(-c3cccnc3COC)n4CC)CC(C)(C)COC(=O)[C@@H]3CCCN(N3)C2=O)C(C)C)C1 [Example A136] | > 10 µM | > 10000 nM | > 10 µM | 1000 to 10000 nM | > 10 µM | < 5 µM | 1000 to 10000 nM |  |  |  |  |
| C=CC(=O)N1CC[C@H](C(=O)N(C)[C@H](C(=O)N[C@H]2Cc3cc(O)cc(c3)-c3ccc4c(c3)c(c(-c3cncs3)n4CC)CC(C)(C)COC(=O)[C@@H]3CCCN(N3)C2=O)C(C)C)C1 [Example A143] | > 10 µM | 1000 to 10000 nM | > 10 µM | 100 to 1000 nM | 1 to 10 µM | < 5 µM | 1000 to 10000 nM |  |  |  |  |
| C=CC(=O)N1CC[C@H](C(=O)N(C)[C@H](C(=O)N[C@H]2Cc3cc(O)cc(c3)-c3ccc4c(c3)c(c(-c3cccc(=O)n3C(C)C)n4CC)CC(C)(C)COC(=O)[C@@H]3CCCN(N3)C2=O)C(C)C)C1 [Example A151] | > 10 µM | 1000 to 10000 nM | > 10 µM | 100 to 1000 nM | 1 to 10 µM | < 5 µM | 1000 to 10000 nM |  |  |  |  |
| C=CC(=O)N1CC[C@H](C(=O)N(C)[C@H](C(=O)N[C@H]2Cc3cc(O)cc(c3)-c3ccc4c(c3)c(c(-c3cccnc3)n4[C@H](C)C#N)CC(C)(C)COC(=O)[C@@H]3CCCN(N3)C2=O)C(C)C)C1 [Example A193] | 1 to 10 µM | 100 to 1000 nM | 1 to 10 µM | 10 to 100 nM | 1 to 10 µM |  | 100 to 1000 nM | 295 nM | < 5 µM |  |  |
| C=CC(=O)N1CC[C@H](C(=O)N(C)[C@H](C(=O)N[C@H]2Cc3cc(O)cc(c3)-c3ccc4c(c3)c(c(-c3c(C)cccc3C)n4CC)CC(C)(C)COC(=O)[C@@H]3CCCN(N3)C2=O)C(C)C)C1 [Example A226] | > 10 µM | 1000 to 10000 nM | > 10 µM | 100 to 1000 nM | > 10 µM | < 5 µM | 1000 to 10000 nM |  |  |  |  |
| C=CC(=O)N1CC[C@H](C(=O)N(C)[C@H](C(=O)N[C@H]2Cc3cc(O)cc(c3)-c3ccc4c(c3)c(c(-c3cccc5c3COC5)n4CC)CC(C)(C)COC(=O)[C@@H]3CCCN(N3)C2=O)C(C)C)C1 [Example A227] | > 10 µM | 1000 to 10000 nM | 1 to 10 µM | 100 to 1000 nM | 1 to 10 µM | < 5 µM | 1000 to 10000 nM |  |  |  |  |
| C=CC(=O)N1CC[C@H](C(=O)N(C)[C@H](C(=O)N[C@H]2Cc3cc(O)cc(c3)-c3ccc4c(c3)c(c(-c3ncn(C)c3[C@H](C)OC)n4CC)CC(C)(C)COC(=O)[C@@H]3CCCN(N3)C2=O)C(C)C)C1 [Example A301] |  | 1000 to 10000 nM | > 10 µM |  | > 10 µM | < 5 µM | 1000 to 10000 nM |  |  | > 10 µM | 100 to 1000 nM |
| C=CC(=O)N1CC[C@H](C(=O)N(C)[C@H](C(=O)N[C@H]2Cc3cc(O)cc(c3)-c3ccc4c(c3)c(c(-c3cnc(N(C)C)s3)n4CC)CC(C)(C)COC(=O)[C@@H]3CCCN(N3)C2=O)C(C)C)C1 [Example A302] | 1 to 10 µM | 1000 to 10000 nM | 1 to 10 µM | 100 to 1000 nM | > 10 µM | < 5 µM | 1000 to 10000 nM |  |  |  |  |
| C=CC(=O)N1CC[C@H](C(=O)N(C)[C@H](C(=O)N[C@H]2Cc3cc(O)cc(c3)-c3ccc4c(c3)c(c(-c3csc(N(C)C)n3)n4CC)CC(C)(C)COC(=O)[C@@H]3CCCN(N3)C2=O)C(C)C)C1 [Example A303] | > 10 µM | > 10000 nM | > 10 µM | 1000 to 10000 nM | > 10 µM | < 5 µM | 1000 to 10000 nM |  |  |  |  |
| C=CC(=O)N1CCOC2(CCN(C(=O)N(C)[C@H](C(=O)N[C@H]3C[C@H]4CN(CCO4)c4ccc5c(c4)c(c(-c4cccnc4[C@H](C)OC)n5CC)CC(C)(C)COC(=O)[C@@H]4CCCN(N4)C3=O)C(C)C)CC2)C1 [Example A564] | 1 to 10 µM | 100 to 1000 nM | 0.1 to 1 µM | 100 to 1000 nM | 1 to 10 µM | < 5 µM | 100 to 1000 nM |  |  |  |  |
| CCn1c(-c2cccnc2[C@H](C)OC)c2c3cc(ccc31)-c1cccc(c1)CC(NC(=O)[C@H](C(C)C)N1CC[C@]3(CCN(C(=O)C#C[C@@H]4COCCN4C4COC4)C3)C1=O)C(=O)N1CCC[C@H](N1)C(=O)OCC(C)(C)C2 (stereo partly drawn) [Example A565] | > 10 µM | 1000 to 10000 nM | > 10 µM | 100 to 1000 nM | > 10 µM | < 5 µM | 1000 to 10000 nM |  |  |  |  |
| C=CC(=O)N1CC[C@H](C(=O)N(C)[C@H](C(=O)N[C@H]2Cc3cccc(c3)-c3ccc4c(c3)c(c(-c3cccnc3[C@H](C)OC)n4CC)CC(C)(C)COC(=O)[C@@H]3CCCN(N3)C2=O)C(C)C(F)(F)F)C1 (stereo partly drawn) [Example A641] | 1 to 10 µM | 1000 to 10000 nM | 1 to 10 µM | 100 to 1000 nM | 1 to 10 µM | < 5 µM | 1000 to 10000 nM |  |  |  |  |
| CCn1c(-c2cccnc2[C@H](C)OC)c2c3cc(ccc31)C1CCCN(C1)C[C@H](NC(=O)[C@@H](COC1CN(C(=O)C#CC(C)(C)N(C)C)C1)C(C)C)C(=O)N1CCC[C@H](N1)C(=O)OCC(C)(C)C2 [Example A646, (2R)-2-(((1-(4-(dimethylamino)-4-methylpent-2-ynoyl)azetidin-3-yl)oxy)methyl)-N-((6^3S,4S)-1^1-ethyl-1^2-(2-((S)-1-methoxyethyl)pyridin-3-yl)-10,10-dimethyl-5,7-dioxo-6^1,6^2,6^3,6^4,6^5,6^6-hexahydro-1^1H-8-oxa-1(5,3)-indola-6(1,3)-pyridazina-2(3,1)-piperidinacycloundecaphane-4-yl)-3-methylbutanamide] | > 10 µM | > 10000 nM | > 10 µM | 10 to 100 nM | > 10 µM | < 5 µM | > 10000 nM |  |  |  |  |
| C=CC(=O)C1CC[C@H](C(=O)N(C)[C@H](C(=O)N[C@H]2Cc3nsc(n3)-c3ccc4c(c3)c(c(-c3cccnc3[C@H](C)OC)n4CC)CC(C)(C)COC(=O)[C@@H]3CCCN(N3)C2=O)C(C)C)C1 (stereo partly drawn) [Example A694] | 1 to 10 µM | 1000 to 10000 nM | 1 to 10 µM | 100 to 1000 nM | 0.1 to 1 µM | < 5 µM | 100 to 1000 nM |  |  |  |  |
